Test results as given in US12064412B2 (SUN YAT-SEN UNIVERSITY, priority 2019, dated 2024).

Key:
[1] = Phase solubility of naringenin with hydroxypropyl β-cyclodextrin in environments of different pH values; assay type: physicochemical; conditions: basic pH (8 and 9) versus ultrapure water, same hydroxypropyl β-cyclodextrin concentration (0-16% w/v), 25±1° C., 48 hours
Description: The process of the experimentation on the coating and solubilization of naringenin by hydroxypropyl β-cyclodextrin comprises:
preparing buffer-salt solutions of pH values of 4, 8 and 9 according to the method on a pharmacopoeia, adding different masses of the hydroxypropyl β-cyclodextrin into the buffer-salt solutions of the pH values of 4, 8 and 9 and ultrapure water, to prepare solutions of hydroxypropyl β-cyclodextrin of mass fractions (w/v) of 0, 2, 4, 8 and 16%, adding individually excessive naringenin, shaking in a constant-temperature shaking table at 25±1° C. at 200 rpm for 48 hours, taking out, standing, filtering by using a 0.45 μm microporous filter membranes, removing the primary filtrate, properly diluting the subsequent filtrate, and performing ultraviolet assay.
The detection method comprises, by using ultraviolet-visible spectrophotometry, measuring at the wavelength of 288 nm.
The preparing of a stock solution of the reference substance comprises: precisely weighing an appropriate amount of the naringenin reference substance that has been dried at 105° C. to constant weight, placing in a 10 mL volumetric flask, and dissolving by using methanol to volume, to obtain a stock solution of the reference substance of the concentration of 1 mg/mL. […]

[2] = oral administration, rat; cited from earlier work
[3] = oral dosage of 21 mg/kg, as reported by documents; cited from earlier work

total naringenin concentration in hydroxypropyl β-cyclodextrin solution at basic pH relative to ultrapure water [1]: approximately 3 times
SMILES: O=C1C[C@@H](c2ccc(O)cc2)Oc2cc(O)cc(O)c21 [naringenin]
bioavailability, as calculated by the free naringenin [2]: approximately 4% | AUC0-t [3]: 15080.4 ng·min/g | Tmax [3]: 2 h
